Consider 31 compounds from US20200138827A1, “SMALL MOLECULE MODULATORS OF HUMAN STING” (Curadev Pharma Limited, priority 2017, published 2020).

The target in this test is T1, WT/R232 STING protein (Homo sapiens, UniProt Q86WV6, H232R).
T1 construct: host or cells: HEK293T
T1 sequence (Q86WV6 whole entry H232R): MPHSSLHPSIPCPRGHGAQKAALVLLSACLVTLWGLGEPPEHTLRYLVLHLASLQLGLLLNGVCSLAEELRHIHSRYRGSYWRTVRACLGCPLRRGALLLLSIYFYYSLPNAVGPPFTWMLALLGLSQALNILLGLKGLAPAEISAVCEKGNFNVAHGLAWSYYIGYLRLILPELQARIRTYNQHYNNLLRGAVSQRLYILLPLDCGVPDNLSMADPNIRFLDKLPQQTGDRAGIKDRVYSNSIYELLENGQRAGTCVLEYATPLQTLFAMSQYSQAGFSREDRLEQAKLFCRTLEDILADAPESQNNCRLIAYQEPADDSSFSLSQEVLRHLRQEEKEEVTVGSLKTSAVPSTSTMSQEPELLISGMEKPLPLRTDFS
In words: Luciferase reporter assay in HEK293T-hSTING-Luciferase cells, WT/R232. To be noted: 20 hr stimulation, read-out: R232 Activity (EC50 range). It is filed as cell-based. The source says: • a) Stable STING expressing cells—Stable HEK293T STING-expressing cell lines were generated using plasmids purchased from Invivogen, Calif., USA, that contain STING cDNA cloned into the pUNO-1 vector under hEF1-HTLV promoter and containing the Blasticidin selection cassette. The plasmids hSTING(R232), hSTING(H232), hSTING(HAQ) were directly procured from Invivogen while hSTING (AQ) and hSTING (Q) were derived from hSTING(HAQ) and hSTING (R232) plasmids respectively by using a PCR based site directed mutagenesis method. These vectors were individually transfected into HEK293T cells using Lipofectamine (Invitrogen) and transfected cells were selected under Blasticidin selection. These transfected cells were further subjected to clonal selection using the limiting dilution method to obtain clonally pure populations of HEK cells transfected with each of the above mentioned human STING variants. Only those clones were selected in which ligand independent activation of STING was minimal. • b) Stable Luciferase reporter gene expressing cells—Stable HEK293T Luciferase reporter gene expressing cell lines were generated using pCDNA4 plasmids under an IRF-inducible promoter. This promoter is comprised of five tandem interferon-stimulated response elements (ISRE) fused to an ISG54 minimal promoter. This vector was transfected into HEK293T cells using Lipofectamine (Invitrogen) and transfected cells were selected under Zeocin selection. These transfected cells were further subjected to clonal selection using the limiting dilution method to obtain clonally pure populations of HEK cells transfected the Luciferase reporter construct. Only those clones were selected in which ligand independent induction of luciferase was minimal.
5×10^5 clonally selected HEK293T-hSTING-Luciferase cells were seeded in 384-well plates in growth medium and stimulated with novel compounds. After 20 hr of stimulation supernatant were removed and secretary reporter gene activity were measured using the Quanti-Luc detection system (Invivogen) on a Spectramax i3X luminometer.
All compounds were first tested in a primary screen using WT/R232 STING protein to obtain a ‘fold-induction’ over baseline levels of protein activity.
As for `O=C(NCC1CCCN(Cc2ccccc2)C1)c1ccc2c(c1)N(Cc1ccccc1F)C(=O)CS2` (stereo not shown) [Example 44, N-((1-benzylpiperidin-3-yl)methyl)-4-(2-fluorobenzyl)-3-oxo-3,4-dihydro-2H-benzo[b][1,4] thiazine-6-carboxamide], the EC50 was above 10 µM. To `O=C(NCC1CCN(c2ccccc2)CC1)c1ccc2c(c1)N(Cc1ccccc1F)C(=O)CS2` [Example 45, 4-(2-fluorobenzyl)-3-oxo-N-((1-phenyl-piperidin-4-yl)methyl)-3,4-dihydro-2H-benzo[b][1,4] thiazine-6-carboxamide] belongs above 10 µM; to `O=C(NCc1ccccc1-c1ccccc1)c1ccc2c(c1)N(Cc1c(F)cccc1Cl)C(=O)CS2` [Example 46, N-([1,1′-biphenyl]-2-ylmethyl)-4-(2-chloro-6-fluorobenzyl)-3-oxo-3,4-dihyddro-2H-benzo[b][1,4] thiazine-6-carboxamide], above 10 µM.

As to `O=C(NCc1cccc(-c2ccccc2)c1)c1ccc2c(c1)N(Cc1c(F)cccc1Cl)C(=O)CS2` [Example 47, N-([1,1′-biphenyl]-3-ylmethyl)-4-(2-chloro-6-fluorobenzyl)-3-oxo-3,4-dihydro-2H-benzo[b][1,4] thiazine-6-carboxamide], the EC50 was above 10 µM. As to `O=C(NCC1CCN(Cc2ccccc2)CC1)c1ccc2c(c1)N(Cc1c(F)cccc1Cl)C(=O)CS2` [Example 48, N-((1-benzylpiperidin-4-yl)methyl)-4-(2-chloro-6-fluorobenzyl)-3-oxo-3,4-dihydro-2H-benzo[b][1,4] thiazine-6-carboxamide], the EC50 was above 10 µM.

In the case of `O=C(NCC1CCCN(c2ccccc2)C1)c1ccc2c(c1)N(Cc1ccccc1F)C(=O)CS2` (stereo not shown) [Example 49, 4-(2-fluorobenzyl)-3-oxo-N-((1-phenyl-piperidin-3-yl)methyl)-3,4-dihydro-2H benzo[b][1,4] thiazine-6-carboxamide], the EC50 is above 10 µM. For `O=C(NCc1ccoc1)c1ccc2c(c1)N(Cc1ccccc1)C(=O)CS2` [Example 50, 4-benzyl-N-(furan-3-ylmethyl)-3-oxo-3,4-dihydro-2H-benzo[b-1,4]thiazine-6-carboxamide], the concentration for a half-maximal effect (EC50) was above 10 µM. Regarding `O=C(NCc1n[nH]c(=O)c2ccccc12)c1ccc2c(c1)N(Cc1ccccc1)C(=O)CS2` [Example 51, 4-benzyl-3-oxo-N-((4-oxo-3,4-dihydrophthalazin-1-yl)methyl)-3,4-dihydro-2H-benzo[b-1,4]thiazine-6-carboxamide], the EC50 was above 10 µM.

For `Nc1ccc(CNC(=O)c2ccc3c(c2)N(Cc2ccccc2)C(=O)CS3)cn1` [Example 52, N-((6-aminopyridin-3-yl)methyl)-4-benzyl-3-oxo-3,4-dihydro-2H-benzo[b-1,4]thiazine-6-carboxamide], the EC50 is above 10 µM. To `CN(C)CC(NC(=O)c1ccc2c(c1)N(Cc1ccccc1)C(=O)CS2)c1ccccc1` (stereo not shown) [Example 53, 4-benzyl-N-(2-(dimethylamino)-1-phenylethyl)-3-oxo-3,4-dihydro-2H-benzo[b-1,4]thiazine-6-carboxamide] belongs above 10 µM; to `O=C(NCc1ncccn1)c1ccc2c(c1)N(Cc1ccccc1)C(=O)CS2` [Example 54, 4-benzyl-3-oxo-N-(pyrimidin-2-ylmethyl)-3,4-dihydro-2H-benzo[b-1,4]thiazine-6-carboxamide], above 10 µM.

On to `O=C(NCc1cccc(Cl)c1Cl)c1ccc2c(c1)N(Cc1ccccc1)C(=O)CS2` [Example 55, 4-benzyl-N-(2,3-dichlorobenzyl)-3-oxo-3,4-dihydro-2H-benzo[b-1,4]thiazine-6-carboxamide], for which the EC50 is above 10 µM. To `N#CCN(Cc1ccccc1)C(=O)c1ccc2c(c1)N(Cc1ccccc1)C(=O)CS2` [Example 56, N,4-dibenzyl-N-(cyanomethyl)-3-oxo-3,4-dihydro-2H-benzo[b-1,4]thiazine-6-carboxamide] belongs above 10 µM; to `CC(NC(=O)c1ccc2c(c1)N(Cc1ccccc1)C(=O)CS2)c1ccc(S(C)(=O)=O)cc1` (stereo not shown) [Example 57, 4-benzyl-N-(1-(4-(methylsulfonyl)phenyl)ethyl)-3-oxo-3,4-dihydro-2H-benzo[b-1,4]thiazine-6-carboxamide], above 10 µM.

In the case of `O=C(NCc1cnccn1)c1ccc2c(c1)N(Cc1ccccc1)C(=O)CS2` [Example 58, 4-benzyl-3-oxo-N-(pyrazin-2-ylmethyl)-3,4-dihydro-2H-benzo[b-1,4]thiazine-6-carboxamide], the EC50 is above 10 µM.

On to `O=C(NCc1ncco1)c1ccc2c(c1)N(Cc1ccccc1)C(=O)CS2` [Example 59, 4-benzyl-N-(oxazol-2-ylmethyl)-3-oxo-3,4-dihydro-2H-benzo[b-1,4]thiazine-6-carboxamide], for which the EC50 was above 10 µM. As for `O=C(NCc1ccsc1)c1ccc2c(c1)N(Cc1ccccc1)C(=O)CS2` [Example 61, 4-benzyl-3-oxo-N-(thiophen-3-ylmethyl)-3,4-dihydro-2H-benzo[b-1,4]thiazine-6-carboxamide], the EC50 fell in the range of 1 to 10 µM. To `Cc1ccc(CNC(=O)c2ccc3c(c2)N(Cc2ccccc2)C(=O)CS3)o1` [Example 62, 4-benzyl-N-((5-methylfuran-2-yl)methyl)-3-oxo-3,4-dihydro-2H-benzo[b-1,4]thiazine-6-carboxamide] belongs 1 to 10 µM.

Take `Cc1cnc(CNC(=O)c2ccc3c(c2)N(Cc2ccccc2)C(=O)CS3)o1` [Example 63, 4-benzyl-N-((5-methyloxazol-2-yl)methyl)-3-oxo-3,4-dihydro-2H-benzo[b-1,4]thiazine-6-carboxamide]: the EC50 is above 10 µM. To `Cc1cnc(CNC(=O)c2ccc3c(c2)N(Cc2ccccc2)C(=O)CS3)s1` [Example 64, 4-benzyl-N-((5-methylthiazol-2-yl)methyl)-3-oxo-3,4-dihydro-2H-benzo[b-1,4]thiazine-6-carboxamide] belongs above 10 µM; to `Cc1csc(CNC(=O)c2ccc3c(c2)N(Cc2ccccc2)C(=O)CS3)n1` [Example 65, 4-benzyl-N-((4-methylthiazol-2-yl)methyl)-3-oxo-3,4-dihydro-2H-benzo[b-1,4]thiazine-6-carboxamide], above 10 µM. To `Cc1noc(CNC(=O)c2ccc3c(c2)N(Cc2ccccc2)C(=O)CS3)n1` [Example 66, 4-benzyl-N-((3-methyl-1,2,4-oxadiazol-5-yl)methyl)-3-oxo-3,4-dihydro-2H-benzo[b-1,4]thiazine-6-carboxamide] belongs 1 to 10 µM; to `Cn1nccc1CNC(=O)c1ccc2c(c1)N(Cc1ccccc1)C(=O)CS2` [Example 67, 4-benzyl-N-((1-methyl-1H-pyrazol-5-yl)methyl)-3-oxo-3,4-dihydro-2H-benzo[b-1,4]thiazine-6-carboxamide], above 10 µM; to `CC(NC(=O)c1ccc2c(c1)N(Cc1ccccc1)C(=O)CS2)c1ccco1` (stereo not shown) [Example 68, 4-benzyl-N-(1-(furan-2-yl)ethyl)-3-oxo-3,4-dihydro-2H-benzo[b-1,4]thiazine-6-carboxamide], above 10 µM.

Consider `O=C(NCc1coc2ccccc12)c1ccc2c(c1)N(Cc1ccccc1)C(=O)CS2` [Example 70, N-(benzofuran-3-ylmethyl)-4-benzyl-3-oxo-3,4-dihydro-2H-benzo[b-1,4]thiazine-6-carboxamide], for which the EC50 is above 10 µM. The same measure for `N#Cc1ccc(CNC(=O)c2ccc3c(c2)N(Cc2ccccc2)C(=O)CS3)cc1` [Example 71, 4-benzyl-N-(4-cyanobenzyl)-3-oxo-3,4-dihydro-2H-benzo[b-1,4]thiazine-6-carboxamide]: 1 to 10 µM; for `O=C(NCc1ccc(C(F)(F)F)cc1)c1ccc2c(c1)N(Cc1ccccc1)C(=O)CS2` [Example 72, 4-benzyl-3-oxo-N-(4-(trifluoromethyl)benzyl)-3,4-dihydro-2H-benzo[b-1,4]thiazine-6-carboxamide]: above 10 µM.

Turning to `O=C(NCc1ccc(Cl)cc1)c1ccc2c(c1)N(Cc1ccccc1)C(=O)CS2` [Example 73, 4-benzyl-N-(4-chlorobenzyl)-3-oxo-3,4-dihydro-2H-benzo[b-1,4]thiazine-6-carboxamide], the EC50 fell in the range of 1 to 10 µM. Consider `O=C(NCc1ccc2ccccc2c1)c1ccc2c(c1)N(Cc1ccccc1)C(=O)CS2` [Example 74, 4-benzyl-N-(naphthalen-2-ylmethyl)-3-oxo-3,4-dihydro-2H-benzo[b-1,4]thiazine-6-carboxamide], for which the EC50 was 1 to 10 µM. For the compound `O=C(NC1(c2ccccc2)CCCC1)c1ccc2c(c1)N(Cc1ccccc1)C(=O)CS2` [Example 75, 4-benzyl-3-oxo-N-(1-phenylcyclopentyl)-3,4-dihydro-2H-benzo[b-1,4]thiazine-6-carboxamide], the EC50 was above 10 µM. Regarding `Cc1cccc(CNC(=O)c2ccc3c(c2)N(Cc2ccccc2)C(=O)CS3)c1` [Example 76, 4-benzyl-N-(3-methylbenzyl)-3-oxo-3,4-dihydro-2H-benzo[b-1,4]thiazine-6-carboxamide], the EC50 was above 10 µM.
